Data taken from patent publication US12371426B2, “Pyridazine derivatives as SMARCA2/4 degraders” (Aurigene Discovery Technologies Limited, priority 2018, dated 2025).

Key:
[1] = test system: NCI-H838 cells; assay: Anti proliferative activity in NCI-H838 cell line by Cell Titer Glo assay; type: cell-based; settings: Homo sapiens, 192 h, 8 days compound incubation, CellTiter Glo, read-out: Anti-proliferative activity IC50 group (NCI-H838 cells)
Description: Determination of Anti Proliferative Activity of Compounds in NCI-H929 and NCI-H838 Cell Lines by Cell Titer Glo® (promega) assay:
NCI-H929 (ATCC CRL-9068) or NCI-H838 (ATCC CRL-5844) cells were seeded in 96 well plate flat black clear bottom plates (Corning, Cat. No 3904) using complete RPMI-1640 media. Next day, compounds listed in the present invention were added to cells from 10 mM stocks made in DMSO (Sigma Cat no. D2650). Each concentration of compound was tested in triplicate with DMSO concentration at a final percentage not exceeding 0.3 in the cells. After the compound incubation (3 days for H929 and 8 days for H838) assay was terminated using 50 μl of CellTiter Glo® reagent (Promega, Cat. no G7572). CellTiter Glo® Luminescent reagent determines the number of viable cells based on quantitation of ATP present which is an indicator of cell number and metabolic activity. Luminescence readings were taken in Victor-3 instrument. Percent inhibition of proliferation was calculated using formula, % inhibition=100−(luminescence value of test/luminescence value of DMSO control)*100. DMSO control (0%)=Cells in complete media with DMSO; blank=Media alone containing DMSO. IC50 was calculated using graph pad prism software.
Herein group “A” refers to IC50 value lower than 1 μM, “B” refers to IC50 value between 1-10 μM (both inclusive) and “C” refers to IC50 value higher than 10 μM or less than 50% activity at 10 μM.

[2] = target: T1, SMARCA4 (Homo sapiens, UniProt P51532); assay: SMARCA4 degradation in H929 cells by Western blot; type: cell-based; settings: 16 hours; for SMARCA4 percent degradation at 0.1 µM: NCI-H929, 100 nM
T1 construct: endogenous in cells; host or cells: NCI-H929 (ATCC CRL-9068)
T1 sequence (P51532 whole entry): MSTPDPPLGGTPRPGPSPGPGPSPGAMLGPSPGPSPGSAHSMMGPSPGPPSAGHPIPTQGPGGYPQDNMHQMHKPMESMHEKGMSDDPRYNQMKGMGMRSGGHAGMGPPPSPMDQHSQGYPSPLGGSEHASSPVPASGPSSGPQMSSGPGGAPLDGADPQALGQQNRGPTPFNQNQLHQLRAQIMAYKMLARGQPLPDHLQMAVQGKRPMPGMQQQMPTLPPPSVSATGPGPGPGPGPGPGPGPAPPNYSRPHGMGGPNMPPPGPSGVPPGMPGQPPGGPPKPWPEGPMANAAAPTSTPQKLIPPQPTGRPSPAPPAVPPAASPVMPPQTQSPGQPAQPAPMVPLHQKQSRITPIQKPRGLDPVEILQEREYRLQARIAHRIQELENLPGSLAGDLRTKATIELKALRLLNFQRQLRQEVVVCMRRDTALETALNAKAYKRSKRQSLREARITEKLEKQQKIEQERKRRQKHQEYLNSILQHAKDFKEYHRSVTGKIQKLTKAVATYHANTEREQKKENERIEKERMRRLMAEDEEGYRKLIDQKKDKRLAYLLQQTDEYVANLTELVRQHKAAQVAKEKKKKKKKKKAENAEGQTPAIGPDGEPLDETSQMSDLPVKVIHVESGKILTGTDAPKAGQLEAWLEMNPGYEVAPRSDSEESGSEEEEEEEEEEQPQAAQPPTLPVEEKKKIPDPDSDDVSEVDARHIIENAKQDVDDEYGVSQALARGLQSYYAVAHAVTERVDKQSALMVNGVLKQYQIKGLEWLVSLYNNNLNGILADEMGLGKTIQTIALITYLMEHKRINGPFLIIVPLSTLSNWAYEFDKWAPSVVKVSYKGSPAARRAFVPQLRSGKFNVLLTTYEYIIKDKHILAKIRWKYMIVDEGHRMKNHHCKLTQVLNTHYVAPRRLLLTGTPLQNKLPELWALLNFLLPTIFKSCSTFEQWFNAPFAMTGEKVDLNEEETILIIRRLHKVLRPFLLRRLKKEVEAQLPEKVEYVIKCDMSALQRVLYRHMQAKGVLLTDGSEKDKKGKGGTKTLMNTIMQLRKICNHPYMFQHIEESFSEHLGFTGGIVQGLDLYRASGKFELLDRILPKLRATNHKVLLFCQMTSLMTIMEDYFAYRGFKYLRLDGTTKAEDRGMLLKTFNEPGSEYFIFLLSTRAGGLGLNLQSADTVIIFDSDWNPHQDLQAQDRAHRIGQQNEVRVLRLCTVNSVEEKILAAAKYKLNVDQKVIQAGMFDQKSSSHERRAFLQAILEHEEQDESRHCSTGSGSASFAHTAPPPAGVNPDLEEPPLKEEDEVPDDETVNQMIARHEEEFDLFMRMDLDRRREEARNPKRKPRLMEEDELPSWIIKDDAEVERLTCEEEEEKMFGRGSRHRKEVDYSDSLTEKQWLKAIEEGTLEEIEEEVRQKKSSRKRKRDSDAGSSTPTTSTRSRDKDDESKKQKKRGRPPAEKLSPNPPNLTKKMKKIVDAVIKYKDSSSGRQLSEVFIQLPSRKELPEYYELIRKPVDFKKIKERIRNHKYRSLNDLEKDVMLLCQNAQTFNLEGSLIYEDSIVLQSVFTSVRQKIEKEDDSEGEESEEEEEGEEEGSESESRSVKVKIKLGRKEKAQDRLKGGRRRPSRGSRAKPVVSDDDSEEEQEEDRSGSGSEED
Description: (§1) Determination of SMARCA2 and SMARCA4 Degradation in H929 Cells by Western Blot:
(§2) NCI-H929 (ATCC CRL-9068) was plated in 6 well plates using complete RPMI-1640 media. Next day, compounds of present invention were added to cells from 10 mM stocks made in DMSO (Sigma Cat no. D2650). Each concentration of compound was tested with DMSO not exceeding final percentage of 0.3 in the cells. Cells were incubated with the compound for 16 hours followed by harvesting with 1× RIPA lysis buffer (Thermo Fischer, catalogue number #89900) containing protease inhibitor cocktail (Sigma catalogue number #P-8340). Equal amount of protein was loaded on SDS PAGE gel for electrophoresis. Western blot was carried out for detection of either SMARCA2 (Cell signaling technologies, catalogue number #11966) or SMARCA4 antibody (Cell signaling technologies, catalogue number #49360). Beta Actin (Santa Cruz, catalogue number #69879) was used as loading control. Percentage of SMARCA2 or SMARCA4 degradation was calculated using formula % Degradation=100−(normalized band intensity in treated sample/normalized band intensity in DMSO sample)*100.
(§3) Selected compounds of the present invention were screened in the above mentioned assay procedures for determination of % SMARCA2 and SMARCA4 degradation 100 nM and the results are summarized in below table 30.

[3] = target: T2, SMARCA2 (Homo sapiens, UniProt P51531); assay: SMARCA2 degradation in H929 cells by Western blot; type: cell-based; design: endogenous in cells; settings: 16 hours
T2 sequence (P51531 whole entry): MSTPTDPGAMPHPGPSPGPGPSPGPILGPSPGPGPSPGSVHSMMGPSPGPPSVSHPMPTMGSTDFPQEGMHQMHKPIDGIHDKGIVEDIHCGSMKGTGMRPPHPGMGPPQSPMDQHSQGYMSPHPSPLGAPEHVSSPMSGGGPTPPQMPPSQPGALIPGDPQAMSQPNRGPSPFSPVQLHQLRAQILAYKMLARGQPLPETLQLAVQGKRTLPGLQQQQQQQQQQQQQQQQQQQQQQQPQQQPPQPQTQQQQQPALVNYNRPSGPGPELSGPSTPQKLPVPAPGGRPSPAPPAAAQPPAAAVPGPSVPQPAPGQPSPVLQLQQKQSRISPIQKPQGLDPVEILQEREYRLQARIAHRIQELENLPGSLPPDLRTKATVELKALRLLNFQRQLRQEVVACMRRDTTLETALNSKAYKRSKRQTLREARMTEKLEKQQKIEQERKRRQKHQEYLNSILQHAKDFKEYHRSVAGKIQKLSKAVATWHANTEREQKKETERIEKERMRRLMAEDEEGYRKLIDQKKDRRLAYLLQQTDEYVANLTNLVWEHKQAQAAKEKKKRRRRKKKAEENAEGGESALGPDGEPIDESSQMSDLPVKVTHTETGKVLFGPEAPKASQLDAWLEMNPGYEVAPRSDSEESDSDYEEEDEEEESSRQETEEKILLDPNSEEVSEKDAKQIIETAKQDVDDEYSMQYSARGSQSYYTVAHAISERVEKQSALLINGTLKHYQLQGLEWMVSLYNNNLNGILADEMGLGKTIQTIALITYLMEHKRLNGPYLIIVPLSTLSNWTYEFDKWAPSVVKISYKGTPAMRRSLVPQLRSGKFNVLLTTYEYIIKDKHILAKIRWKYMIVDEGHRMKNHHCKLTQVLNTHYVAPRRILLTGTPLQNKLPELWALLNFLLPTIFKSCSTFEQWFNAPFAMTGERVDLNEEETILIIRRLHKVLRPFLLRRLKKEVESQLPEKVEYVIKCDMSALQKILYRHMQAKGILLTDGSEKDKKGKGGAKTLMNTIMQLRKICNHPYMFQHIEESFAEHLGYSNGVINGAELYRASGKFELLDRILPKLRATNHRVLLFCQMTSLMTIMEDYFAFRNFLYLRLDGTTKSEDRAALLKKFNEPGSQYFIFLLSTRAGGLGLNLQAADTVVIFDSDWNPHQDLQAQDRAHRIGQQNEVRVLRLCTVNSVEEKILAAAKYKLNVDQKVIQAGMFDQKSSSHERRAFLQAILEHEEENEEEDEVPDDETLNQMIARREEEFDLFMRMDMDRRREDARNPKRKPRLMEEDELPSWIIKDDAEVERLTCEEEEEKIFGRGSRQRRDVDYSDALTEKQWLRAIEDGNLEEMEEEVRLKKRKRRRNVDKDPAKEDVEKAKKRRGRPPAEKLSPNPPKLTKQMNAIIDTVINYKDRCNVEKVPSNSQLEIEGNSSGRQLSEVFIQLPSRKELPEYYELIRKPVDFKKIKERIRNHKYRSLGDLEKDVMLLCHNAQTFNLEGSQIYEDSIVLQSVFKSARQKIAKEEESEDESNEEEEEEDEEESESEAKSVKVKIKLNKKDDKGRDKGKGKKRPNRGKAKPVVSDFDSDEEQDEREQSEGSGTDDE
Description: as §1, §2, §3

[4] = target: T2, SMARCA2; assay: SMARCA2 degradation in NCI-H838 cells by Western blot; type: cell-based; design: endogenous in cells; host or cells: NCI-H838 (ATCC CRL-5844); settings: 16 hours
Description: Determination of SMARCA2 Degradation in NCI-1H838 Cells by Western Blot:
NCI-1H838 (ATCC CRL-5844) was plated in 6 well plates using complete RPMI-1640 media. Next day, compounds of present invention were added to cells from 10 mM stocks made in DMSO (Sigma Cat no. D2650). Each concentration of compound was tested with DMSO concentration not exceeding a final percentage of 0.3 in the cells. Cells were incubated with the compound for 16 hours followed by harvesting with 1× RIPA lysis buffer (Thermo Fischer, catalogue number #89900) containing protease inhibitor cocktail (Sigma catalogue number #P-8340). Equal amount of protein was loaded on SIDS PAGE gel for electrophoresis. Western blot was carried out for detection of SMARCA2 with antibody (Cell signaling technologies, catalogue number #11966). Beta Actin (Santa Cruz, catalogue number #69879) was used as loading control. Percentage of SMARCA2 degradation was calculated using formula % degradation=100−(normalized band intensity in treated sample/normalized band intensity in DMSO sample)*100”.
Selected compounds of the present invention were screened in the above mentioned assay procedures for determination of % SMARCA2 degradation at 100 nM and the results are summarized in below table 31.

[5] = test system: NCI-H929 cells; assay: Anti proliferative activity in NCI-H929 cell line by Cell Titer Glo assay; type: cell-based; settings: Homo sapiens, 72 h, 3 days compound incubation, CellTiter Glo, read-out: Anti-proliferative activity IC50 group (NCI-H929 cells)
In short: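 Cells seeded in complete RPMI-1640 and exposed next day to compounds in triplicate (DMSO ≤0.3% final) for 3 days (H929) or 8 days (H838). Viability by CellTiter-Glo ATP luminescence; % inhibition relative to DMSO control, IC50 from dose-response fit.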

[6] = test system: SMARCA4-deficient cancer cell lines; settings: SMARCA2/4 bromodomain inhibitor; Cancer Res. 2015; cited from earlier work

Structure (SMILES) | IC50 [1] [nM] | SMARCA4 percent degradation at 0.1 µM [2] [%] | SMARCA2 Percent degradation @ 100 nM [3] [%] | SMARCA2 @ 100 nM (% SMARCA2 degradation) [4] [%] | IC50 [5] [nM] | SMARCA4 Percent degradation @ 100 nM [2] [%] | antiproliferative phenotype [6]
Cc1ncsc1-c1ccc([C@H](C)NC(=O)[C@@H]2C[C@@H](O)CN2C(=O)[C@@H](NC(=O)C(C)N2CCN(c3cc(-c4ccccc4O)nnc3N)CC2)C(C)(C)C)cc1 (single isomer, unassigned) [Compound 58] | < 1000 | 100 | 100 | 71 | – | – | –
Cc1ncsc1-c1ccc([C@H](C)NC(=O)[C@@H]2C[C@@H](O)CN2C(=O)[C@@H](NC(=O)C(C)C2CCN(c3cc(-c4cccc(F)c4O)nnc3N)CC2)C(C)(C)C)cc1 (single isomer, unassigned) [Compound 83] | < 1000 | – | 100 | 7 | – | – | –
Cc1ncsc1-c1ccc([C@H](C)NC(=O)[C@@H]2C[C@@H](O)CN2C(=O)[C@@H](NC(=O)CN2CCN(c3cc(-c4ccccc4O)nnc3N)CC2)C(C)(C)C)cc1 [Compound 43] | < 1000 | – | 100 | 97 | < 1000 | 100 | –
Cc1ncsc1-c1ccc([C@H](C)NC(=O)[C@@H]2C[C@@H](O)CN2C(=O)[C@@H](NC(=O)CC2CCN(c3cc(-c4ccccc4O)nnc3N)CC2)C(C)(C)C)cc1 [Compound 51, (2S,4R)-1-((S)-2-(2-(1-(3-amino-6-(2-hydroxyphenyl)pyridazin-4-yl)piperidin-4-yl)acetamido)-3,3-dimethylbutanoyl)-4-hydroxy-N—((S)-1-(4-(4-methylthiazol-5-yl)phenyl)ethyl)pyrrolidine-2-carboxamide] | < 1000 | 99 | – | 99 | < 1000 | – | –
Cc1ncsc1-c1ccc([C@H](C)NC(=O)[C@@H]2C[C@@H](O)CN2C(=O)[C@@H](NC(=O)CC2(O)CCN(c3cc(-c4ccccc4O)nnc3N)CC2)C(C)(C)C)cc1 [Compound 55, (2S,4R)-1-((S)-2-(2-(1-(3-amino-6-(2-hydroxyphenyl)pyridazin-4-yl)-4-hydroxypiperidin-4-yl)acetamido)-3,3-dimethylbutanoyl)-4-hydroxy-N—((S)-1-(4-(4-methylthiazol-5-yl)phenyl)ethyl)pyrrolidine-2-carboxamide] | < 1000 | – | – | – | < 1000 | – | –
Cc1ncsc1-c1ccc([C@H](C)NC(=O)[C@@H]2C[C@@H](O)CN2C(=O)[C@@H](NC(=O)CN2C3CCC2CN(c2cc(-c4ccccc4O)nnc2N)C3)C(C)(C)C)cc1 [Compound 61, (2S,4R)-1-((2S)-2-(2-(3-(3-amino-6-(2-hydroxyphenyl)pyridazin-4-yl)-3,8-diazabicyclo[3.2.1]octan-8-yl)acetamido)-3,3-dimethylbutanoyl)-4-hydroxy-N—((S)-1-(4-(4-methylthiazol-5-yl)phenyl)ethyl)pyrrolidine-2-carboxamide] | < 1000 | – | – | 35 | – | – | –
Cc1ncsc1-c1ccc([C@H](C)NC(=O)[C@@H]2C[C@@H](O)CN2C(=O)[C@@H](NC(=O)CN2CCN(c3cc(-c4cc(F)ccc4O)nnc3N)CC2)C(C)(C)C)cc1 [Compound 63, (2S,4R)-1-((S)-2-(2-(4-(3-amino-6-(5-fluoro-2-hydroxyphenyl)pyridazin-4-yl)piperazin-1-yl)acetamido)-3,3-dimethylbutanoyl)-4-hydroxy-N—((S)-1-(4-(4-methylthiazol-5-yl)phenyl)ethyl)pyrrolidine-2-carboxamide] | < 1000 | – | – | 94 | – | – | –
Cc1ncsc1-c1ccc([C@H](C)NC(=O)[C@@H]2C[C@@H](O)CN2C(=O)[C@@H](NC(=O)CN2CCC(c3cc(-c4ccccc4O)nnc3N)CC2)C(C)(C)C)cc1 [Compound 81] | < 1000 | – | – | 34 | < 1000 | – | –
Cc1ncsc1-c1ccc([C@H](C)NC(=O)[C@@H]2C[C@@H](O)CN2C(=O)[C@@H](NC(=O)CN2CC=C(c3cc(-c4ccccc4O)nnc3N)CC2)C(C)(C)C)cc1 [Compound 82] | < 1000 | – | – | 61 | < 1000 | – | –
Cc1ncsc1-c1ccc([C@H](C)NC(=O)[C@@H]2C[C@@H](O)CN2C(=O)[C@@H](NC(=O)CN2CCN(c3cc(-c4cccc(F)c4O)nnc3N)CC2)C(C)(C)C)cc1 [Compound 90] | < 1000 | 101 | 100 | 85 | < 1000 | – | –
Cc1cccc(-c2cc(N3CCN(CC(=O)N[C@H](C(=O)N4C[C@H](O)C[C@H]4C(=O)N[C@@H](C)c4ccc(-c5scnc5C)cc4)C(C)(C)C)CC3)c(N)nn2)c1O [Compound 91] | < 1000 | – | – | 82 | – | – | –
Cc1ncsc1-c1ccc([C@H](C)NC(=O)[C@@H]2C[C@@H](O)CN2C(=O)[C@@H](NC(=O)CN2CCN(c3cc(-c4c(O)ccc(F)c4F)nnc3N)CC2)C(C)(C)C)cc1 [Compound 96] | < 1000 | – | – | 76 | – | – | –
Cc1ncsc1-c1ccc([C@H](C)NC(=O)[C@@H]2C[C@@H](O)CN2C(=O)[C@@H](NC(=O)CC2CCN(c3cc(-c4cc(F)ccc4O)nnc3N)CC2)C(C)(C)C)cc1 [Compound 99] | < 1000 | 100 | 99 | 75 | < 1000 | – | –
Cc1ncsc1-c1ccc([C@H](C)NC(=O)[C@@H]2C[C@@H](O)CN2C(=O)[C@@H](NC(=O)C=C2CCN(c3cc(-c4ccccc4O)nnc3N)CC2)C(C)(C)C)cc1 [Compound 103] | < 1000 | – | – | 64 | – | – | –
O=C(/C=C/N1C[C@H]2C[C@@H]1CN2c1ccccn1)c1ccccc1O [PFI-3] | – | – | – | – | – | – | fails to display an antiproliferative phenotype
